Each structure is given as a SMILES string.

The values below come from patent US6951950B2, “Quaternary ammonium compounds” (Pharmacia & Upjohn Co, priority 2002, dated 2005).

The assay relates to Balb/c mice. Briefly: Bronchodilatory effect of inhaled quaternary ammonium salts; methacholine-induced bronchoconstriction (Penh, whole body plethysmography). The format is in vivo. Particulars: for inhibition of the bronchoconstriction to methacholine: female BALB/c mice, 5 min inhalation of 1.29 mg/ml aerosol, 80 mg/ml methacholine. On the procedure:
Female BALB/c mice, weight range 19-22 g, were obtained from Charles River Laboratories (Kingston, N.C.). They received food and water ad libitum. All procedures in these studies were in compliance with the Animal Welfare Act Regulation, 9CFP. Parts 1 and 2, Publication (NIH) 85-23, 1985.
Compounds for aerosol administration were prepared in sterile Dulbecco's Phosphate Buffered Saline. Mice were placed in a carousel-style, nose only, exposure chamber and allowed to inhale aerosols for five minutes, using an ICN SPAG-2 nebulizer. This nebulizer generates a mean aerosol particle size of 1.3 microns at a rate of approximately 0.25 ml/minute.
Ten minutes and 36 hours later, the mice were moved to whole body plethysmograph chambers. Bronchoconstriction was induced in mice by administration of an 80 mg/ml methacholine (MC) aerosol into the plethysmograph chambers for 5 minutes. The mice were allowed to inhale an aerosol containing 80 mg/ml methacholine following inhalation treatment with DPBS vehicle (Dulbecco's Phosphate Buffered Saline), or 80 mg/ml methacholine following inhalation treatment with 1.29 mg/ml of (3S)-3-(2-amino-2-oxo-1,1-diphenylethyl)-1-[2-(2,3-dihydro-1-benzofuran-5-yl)ethyl]-1-methylpyrrolidinium iodide. The average enhanced pause (Penh, lung resistance), corresponding to airflow resistance, was determined and statistically analyzed using Kruskal-Wallis one way ANOVA. In order to determine the baseline, saline aerosol (without methacholine) was also separately administered to the mice.

`C[N+]1(CCc2ccc3c(c2)CCO3)CC[C@@H](C(C(N)=O)(c2ccccc2)c2ccccc2)C1.[I-]` (stereo partly drawn) [Example I, (3S)-3-(2-amino-2-oxo-1,1-diphenylethyl)-1-[2-(2,3-dihydro-1-benzofuran-5-yl)ethyl]-1-methylpyrrolidinium iodide]: the “inhibition of the bronchoconstriction to methacholine” value reads like this: (measured 10 minutes after dosing (FIG. 1)) 100%; (measured 36 hours after dosing (FIG. 2)) 61%. The “efficacy (lung resistance) compared to tertiary amine form” value (varying concentrations, quaternary compound vs its tertiary amine form (FIGS. 3A-3C)) is listed as “extended activity”.
